Data from patent US20250304623A1, “PEPTIDES FOR INTRACELLULAR DELIVERY” (UNIVERSIDADE DE SANTIAGO DE COMPOSTELA, priority 2022, published 2025).

Legend:
[1] = test system: Hela cells; assay: EGFP pDNA transfection, flow cytometry, HeLa; format: cell-based; details: myristoleyl aldehyde
Protocol: (§1) For cytometry-based assays, the delivery of pDNA encoding for the expression of eGFP gene (GFP) in HeLa and A549 cells was performed. Amphiphilic molecule stock solutions in DMSO were diluted with DMEM and freshly mixed with pDNA stock solutions in DMEM prior to transfection experiments, to afford several complexes at different amphiphile concentration (2.5-10 μM) while maintaining a constant final pDNA concentration of 2 ng/μL. The mixture was shaken for 30 min at room temperature before the addition to the cells. The cell medium was aspirated, and cells were washed twice with PBS. Finally, 50 μL of the complex's solution were added to the cells and incubated for 4 h. After the incubation, the medium was replaced by 100 μL of fresh DMEM supplemented with 10% FBS. 72 hours after transfection the DMEM was removed, and cells were cultured for 5 min with 100 μL of trypsin. Then, 100 μL of PBS (supplemented with 2% FBS and 1% EDTA 0.5M) were added. Finally, the GFP fluorescent measurement was performed in a flow cytometer and the percentage of GFP positive (i.e., transfected cells) were quantified. Amphiphile transfection efficiency was compared to control, non-treated cells and all experiments were done in triplicate.
7.3(Leu-His) peptide with D-amino acids was synthesized. This peptide would be more resistant to the degradation by proteases. The inventors studied the delivery of EGFP pDNA using amphiphiles comprising either enantiomer (either 7.3(Leu-His) peptide with D-amino acids or with L-amino acids) and myristoleyl aldehyde to compare their transfecting activity in HeLa cells. Number of EGFP expressing cells was measured by flow cytometry.
Experiments in cultured cells at different confluence levels were performed to check the effect of this parameter on the activity of amphiphile 7.3(Leu-His) M. As described above, transfection experiments are usually performed on cells seeded the day before at a cell concentration of 60,000 cell/mL (100 μL/well). In the current example, transfection experiments with EGFP pDNA are performed in HeLa cells two and four times more concentrated (120,000 and 240,000 cells/mL, respectively). […] However, for this experiment more volume of complex amphiphile/pDNA was needed as the cell concentration was increased (50, 100 and 200 μL of complexes were used for 60,000, 120,000 and 240,000 cells/mL, respectively).
Several structural modifications were performed on the peptide 7.3(Leu-His). The delivery of EGFP pDNA in HeLa cells using amphiphiles comprising these peptides and myristoleyl aldehyde was tested. The modifications consisted of the modification in the order of the amino acids, the replacement of 1 to 3 K* residues for O* residues and the addition of 1 or 2 R residues on the N-terminus. […]

[2] = test system: A549 cells; assay: EGFP pDNA transfection, flow cytometry, A549; format: cell-based; details: myristoleyl aldehyde, 5 μM
Protocol: FIG. 6 EGFP pDNA transfection efficacy with amphiphiles (myristoleyl aldehyde hydrophobic tails were used in all cases) comprising peptide 7.3(L-H) and other short peptides structurally-derived from 7.3(L-H), in A549, HeLa and HepG2 cell lines. 5 μM of amphiphile and 2 ng/μL pDNA per well were used in the transfection experiments. “LF”=Lipofectamine® 2000 commercial reagent.
as §1, with “72 hours after transfection the DMEM was removed, and cells were cultured for 5 min with 100 μL of trypsin. Then, 100 μL of PBS (supplemented with 2% FBS and 1% EDTA 0.5M) were added.” left out, “Amphiphile transfection efficiency was compared to control, non-treated cells and all experiments were done in triplicate.” left out

[3] = 5 μM, cell lines of FIG. 6 other than A549

Substance	EGFP pDNA transfection efficiency as % of V1-7.3(Leu-His) M or 7.3(Leu-His) M [1, 3]	EGFP pDNA transfection efficiency compared with other amphiphiles [2]	EGFP pDNA transfecting activity, D- versus L-amino acid peptide ([1]; HeLa, flow cytometry)	EGFP pDNA transfection efficiency compared with amphiphile 7.3(Leu-His) M [1, 3]
Ac-RK*HHK*K*R-NH2 (Ac-RKHHKKR-NH2; not fully specified (residues 2, 5, 6); printed as Ac-RK*HHK*K*R-NH2; also: linker on K* not given here) [V2-7.3(Leu-His)]	about 50%	enhanced efficiency matching V1-7.3(Leu-His) M transfection efficiency		
Ac-RK*HRK*K*H-NH2 [7.3(Leu-His) peptide with D-amino acids]			both peptides perform equally efficiently	
Ac-RHK*K*K*HR-NH2 (Ac-RHKKKHR-NH2; not fully specified (residues 3, 4, 5); printed as Ac-RHK*K*K*HR-NH2; also: linker on K* not given here) [V1-7.3(Leu-His)]		about half		generally show the same transfection efficiency
